Measurements published in patent US11926642B2, “Compounds and methods for the treatment of COVID-19” (priority 2020, dated 2024).
Like-named read-outs stand apart in the source and are kept apart here.

What was measured:
[1] = molecular target: IBV-CoV-2 3CLpro (Avian infectious bronchitis virus, UniProt P0C6Y1); experiment: 3CLpro FRET protease activity assay, IBV-CoV-2; format: biochemical
[2] = tested on: SARS-CoV-2; experiment: Antiviral activity in A549-ACE2 cells, high content imaging of virus N protein; format: cell-based, USA-WA1/2020 SARS-CoV-2; settings: for EC50 / EC90: Severe acute respiratory syndrome coronavirus 2, A549-ACE2
[3] = tested on: CYP3A; experiment: in vitro; settings: human, microsomes
[4] = in vitro
[5] = molecular target: Human Cathepsin B (Homo sapiens, UniProt P07858); format: biochemical
[6] = molecular target: Human Caspase 2 (Homo sapiens, UniProt P42575); experiment: biochemical
[7] = molecular target: BCRP (Homo sapiens, UniProt Q9UNQ0)
[8] = in vivo; settings: rat, po, 2 mg/kg
[9] = tested on: Vero E6-EGFP cells; settings: read-out: CC50 μM GeoMean (95% CI)
[10] = molecular target: CYP2C9 (Homo sapiens, UniProt P11712); experiment: biochemical
[11] = tested on: Vero E6-enACE2 cells; settings: read-out: CC50 μM GeoMean (95% CI)
[12] = molecular target: HKU5-CoV 3CLpro (Bat coronavirus HKU5, UniProt P0C6W4); format: biochemical
[13] = molecular target: OAT1 (Homo sapiens, UniProt Q4U2R8)
[14] = tested on: HeLa-ACE2 cells
[15] = molecular target: OCT2 (Homo sapiens, UniProt O15244)
[16] = cytochrome P450 metabolism, HLM
[17] = tested on: SARS2 BetaCov GHB-03021/2020; experiment: microbe, parasite or virus in culture; format: cell-based, SARS-CoV-2; settings: Severe acute respiratory syndrome coronavirus 2; in the presence of the P-gp inhibitor
[18] = molecular target: MHV-CoV 3CLpro (Murine coronavirus, UniProt P0C6X9)
[19] = molecular target: CYP2B6 (Homo sapiens, UniProt P20813); experiment: biochemical
[20] = Intravenous pharmacokinetics of parent compound in rats, dogs and monkeys
[21] = molecular target: T1, Human Thrombin (Homo sapiens, UniProt P00734); experiment: biochemical
T1 construct: Human Thrombin

[22] = molecular target: OAT3 (Homo sapiens, UniProt Q8TCC7)
[23] = molecular target: CYP2C8 (Homo sapiens, UniProt P10632); experiment: biochemical
[24] = molecular target: FIPV-CoV-2 3CLpro (Feline coronavirus, UniProt Q98VG9); experiment: 3CLpro FRET protease activity assay, FIPV-CoV-2; format: biochemical
[25] = pH 7.4
[26] = in vitro; settings: human
[27] = molecular target: CYP2D6 (Homo sapiens, UniProt P10635); experiment: biochemical
[28] = tested on: CYP3A4/5
[29] = molecular target: HKU4-CoV 3CLpro (Bat coronavirus HKU4, UniProt P0C6W3); format: biochemical
[30] = molecular target: MATE1 (Homo sapiens, UniProt Q96FL8)
[31] = molecular target: OCT1 (Homo sapiens, UniProt O15245)
[32] = tested on: Human Chymotrypsin; format: biochemical
[33] = tested on: SARS-CoV-2 Washington strain 1; format: cell-based
[34] = molecular target: CYP2C19 (Homo sapiens, UniProt P33261); experiment: biochemical
[35] = tested on: SARS-CoV-2; experiment: microbe, parasite or virus in culture; format: cell-based, Washington SARS-CoV-2; settings: Severe acute respiratory syndrome coronavirus 2, HAE; antiviral time course, preliminary data; read-out: unbound EC90
[36] = at clinically relevant exposures
[37] = molecular target: SARS-CoV-2 3CLpro (Severe acute respiratory syndrome coronavirus 2, UniProt P0DTD1); experiment: Thermal-shift binding assay; settings: n=8
[38] = molecular target: CYP3A4 (Homo sapiens, UniProt P08684)
[39] = molecular target: hERG (Homo sapiens, UniProt Q12809)
[40] = continuous IV infusion, 4 days, male rats
[41] = tested on: SARS-CoV-2; experiment: Antiviral activity in HeLa-ACE2 cells, high content imaging with convalescent sera; format: cell-based, USA-WA1/2020 SARS-CoV-2
[42] = molecular target: HKU9-CoV 3CLpro (Bat coronavirus HKU9, UniProt P0C6W5); format: biochemical
[43] = molecular target: PEDV-CoV-2 3CLpro (Porcine epidemic diarrhea virus, UniProt P0C6Y4); experiment: 3CLpro FRET protease activity assay, PEDV-CoV-2; format: biochemical
[44] = molecular target: Pgp (Homo sapiens, UniProt P08183)
[45] = molecular target: CYP1A2 (Homo sapiens, UniProt P05177); experiment: biochemical
[46] = molecular target: HIV-1 protease (Human immunodeficiency virus type 1 group M subtype B, UniProt P04585); experiment: biochemical
[47] = molecular target: MATE2K (Homo sapiens, UniProt Q86VL8)
[48] = molecular target: Human Cathepsin D (Homo sapiens, UniProt P07339); experiment: biochemical
[49] = molecular target: OATP1B3 (Homo sapiens, UniProt Q9NPD5)
[50] = tested on: P-gp (also known as MDR1 or ABCB1); settings: not told; cited from earlier work
[51] = molecular target: OATP1B1 (Homo sapiens, UniProt Q9Y6L6)
[52] = IV, 1 or 2 mg/kg, across species
[53] = Severe acute respiratory syndrome coronavirus 2, HeLa-ACE2, 24 h

Chain of OAT1 (Q4U2R8 whole entry): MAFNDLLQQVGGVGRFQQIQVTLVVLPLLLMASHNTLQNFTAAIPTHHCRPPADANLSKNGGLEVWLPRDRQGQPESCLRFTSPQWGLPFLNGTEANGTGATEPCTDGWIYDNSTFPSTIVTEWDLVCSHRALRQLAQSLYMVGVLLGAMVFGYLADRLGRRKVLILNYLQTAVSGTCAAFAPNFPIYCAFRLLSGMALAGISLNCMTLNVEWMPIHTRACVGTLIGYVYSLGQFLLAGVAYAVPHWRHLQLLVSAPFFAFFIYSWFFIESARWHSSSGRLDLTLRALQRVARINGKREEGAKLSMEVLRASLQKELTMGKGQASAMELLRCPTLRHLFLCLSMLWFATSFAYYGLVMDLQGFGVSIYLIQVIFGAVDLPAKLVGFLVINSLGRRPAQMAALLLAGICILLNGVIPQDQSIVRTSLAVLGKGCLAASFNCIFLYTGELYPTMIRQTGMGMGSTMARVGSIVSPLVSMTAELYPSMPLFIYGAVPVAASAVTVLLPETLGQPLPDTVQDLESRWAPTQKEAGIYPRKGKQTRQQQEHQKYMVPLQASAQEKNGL
Chain of CYP2C8 (P10632 whole entry): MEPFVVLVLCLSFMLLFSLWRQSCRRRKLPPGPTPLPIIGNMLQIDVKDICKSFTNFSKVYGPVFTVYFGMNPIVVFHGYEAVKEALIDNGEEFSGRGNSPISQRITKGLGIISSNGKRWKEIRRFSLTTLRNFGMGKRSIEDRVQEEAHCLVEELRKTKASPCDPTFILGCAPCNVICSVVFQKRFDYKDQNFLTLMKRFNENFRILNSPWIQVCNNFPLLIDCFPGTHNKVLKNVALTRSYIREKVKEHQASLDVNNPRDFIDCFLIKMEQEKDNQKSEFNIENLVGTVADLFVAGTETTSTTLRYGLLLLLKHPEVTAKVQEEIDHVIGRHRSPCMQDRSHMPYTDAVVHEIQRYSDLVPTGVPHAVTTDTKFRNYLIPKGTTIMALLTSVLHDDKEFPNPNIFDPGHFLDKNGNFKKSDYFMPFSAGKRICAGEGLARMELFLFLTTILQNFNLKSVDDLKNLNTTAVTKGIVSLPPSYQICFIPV
Chain of CYP2C9 (P11712 whole entry): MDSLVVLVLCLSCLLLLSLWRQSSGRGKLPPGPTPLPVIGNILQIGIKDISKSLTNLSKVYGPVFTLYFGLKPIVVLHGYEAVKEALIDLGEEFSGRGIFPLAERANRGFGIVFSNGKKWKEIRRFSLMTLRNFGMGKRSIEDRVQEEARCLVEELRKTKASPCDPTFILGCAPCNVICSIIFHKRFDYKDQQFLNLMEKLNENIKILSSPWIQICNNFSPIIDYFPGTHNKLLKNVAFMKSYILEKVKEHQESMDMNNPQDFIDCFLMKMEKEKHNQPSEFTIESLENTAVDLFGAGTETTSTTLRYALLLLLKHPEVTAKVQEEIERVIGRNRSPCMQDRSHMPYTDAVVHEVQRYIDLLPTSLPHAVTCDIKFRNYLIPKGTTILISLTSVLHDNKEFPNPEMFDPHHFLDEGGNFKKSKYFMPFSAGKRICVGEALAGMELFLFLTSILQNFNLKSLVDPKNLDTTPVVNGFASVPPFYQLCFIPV
Chain of PEDV-CoV-2 3CLpro (P0C6Y4 2998-3299): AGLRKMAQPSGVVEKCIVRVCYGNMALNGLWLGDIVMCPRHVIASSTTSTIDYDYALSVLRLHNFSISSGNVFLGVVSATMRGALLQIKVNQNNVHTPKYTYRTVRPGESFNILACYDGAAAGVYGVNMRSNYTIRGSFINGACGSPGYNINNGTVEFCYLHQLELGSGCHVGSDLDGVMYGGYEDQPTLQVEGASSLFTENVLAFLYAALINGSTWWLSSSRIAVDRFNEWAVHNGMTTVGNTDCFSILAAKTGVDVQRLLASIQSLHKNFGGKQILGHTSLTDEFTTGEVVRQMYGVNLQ
Chain of HKU9-CoV 3CLpro (P0C6W5 3104-3409 limits assumed): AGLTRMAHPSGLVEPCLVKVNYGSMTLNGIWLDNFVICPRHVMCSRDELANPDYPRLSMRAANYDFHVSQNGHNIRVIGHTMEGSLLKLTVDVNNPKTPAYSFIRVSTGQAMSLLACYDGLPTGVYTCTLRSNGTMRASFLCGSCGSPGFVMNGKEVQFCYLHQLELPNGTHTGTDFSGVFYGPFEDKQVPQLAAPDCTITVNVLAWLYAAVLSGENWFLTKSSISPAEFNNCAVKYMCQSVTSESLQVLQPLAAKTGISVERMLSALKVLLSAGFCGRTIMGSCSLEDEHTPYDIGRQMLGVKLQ
Chain of MATE2K (Q86VL8 other isoform, or with tags, fused parts or gaps): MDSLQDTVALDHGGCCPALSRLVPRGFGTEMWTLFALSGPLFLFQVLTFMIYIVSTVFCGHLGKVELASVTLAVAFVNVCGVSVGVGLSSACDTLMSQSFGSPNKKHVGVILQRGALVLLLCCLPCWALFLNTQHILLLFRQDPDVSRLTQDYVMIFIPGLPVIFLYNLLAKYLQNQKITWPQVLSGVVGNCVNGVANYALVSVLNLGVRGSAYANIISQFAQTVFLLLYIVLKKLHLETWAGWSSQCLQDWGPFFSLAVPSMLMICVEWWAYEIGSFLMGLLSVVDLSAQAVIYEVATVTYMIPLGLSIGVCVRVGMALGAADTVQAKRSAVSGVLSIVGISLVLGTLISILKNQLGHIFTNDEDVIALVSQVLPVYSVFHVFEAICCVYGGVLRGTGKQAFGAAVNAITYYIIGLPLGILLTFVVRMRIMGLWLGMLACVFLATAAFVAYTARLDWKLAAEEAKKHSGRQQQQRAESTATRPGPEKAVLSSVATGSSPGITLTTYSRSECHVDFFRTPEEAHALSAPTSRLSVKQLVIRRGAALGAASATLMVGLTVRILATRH
Chain of OAT3 (Q8TCC7 whole entry): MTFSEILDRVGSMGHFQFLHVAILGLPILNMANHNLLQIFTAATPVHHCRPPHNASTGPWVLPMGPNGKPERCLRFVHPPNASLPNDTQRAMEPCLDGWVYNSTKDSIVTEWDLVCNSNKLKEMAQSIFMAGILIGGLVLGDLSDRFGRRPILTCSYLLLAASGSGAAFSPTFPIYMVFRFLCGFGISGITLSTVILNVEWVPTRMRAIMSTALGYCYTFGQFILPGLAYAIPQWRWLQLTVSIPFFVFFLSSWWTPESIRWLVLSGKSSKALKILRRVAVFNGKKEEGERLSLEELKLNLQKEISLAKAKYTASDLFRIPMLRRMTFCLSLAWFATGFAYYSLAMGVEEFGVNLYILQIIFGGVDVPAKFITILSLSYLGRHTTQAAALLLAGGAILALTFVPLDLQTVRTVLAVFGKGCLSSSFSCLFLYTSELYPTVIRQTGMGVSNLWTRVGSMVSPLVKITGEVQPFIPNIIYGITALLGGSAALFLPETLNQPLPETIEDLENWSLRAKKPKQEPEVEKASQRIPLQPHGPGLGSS
Chain of MATE1 (Q96FL8 whole entry): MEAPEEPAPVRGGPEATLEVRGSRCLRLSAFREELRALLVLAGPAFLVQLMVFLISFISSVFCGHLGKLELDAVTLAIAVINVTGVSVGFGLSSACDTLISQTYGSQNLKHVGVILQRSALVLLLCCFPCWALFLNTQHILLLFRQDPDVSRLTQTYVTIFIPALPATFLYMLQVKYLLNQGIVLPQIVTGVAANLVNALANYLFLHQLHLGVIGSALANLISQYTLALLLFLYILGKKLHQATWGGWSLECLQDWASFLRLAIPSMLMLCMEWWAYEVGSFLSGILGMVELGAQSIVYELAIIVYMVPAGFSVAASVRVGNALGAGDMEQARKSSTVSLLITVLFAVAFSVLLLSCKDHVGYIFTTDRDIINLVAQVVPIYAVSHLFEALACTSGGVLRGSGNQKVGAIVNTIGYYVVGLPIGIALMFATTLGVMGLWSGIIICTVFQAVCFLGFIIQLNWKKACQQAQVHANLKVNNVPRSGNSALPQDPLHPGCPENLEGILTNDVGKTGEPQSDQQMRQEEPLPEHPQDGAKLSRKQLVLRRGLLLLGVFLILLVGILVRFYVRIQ
Chain of Human Caspase 2 (P42575 348-452): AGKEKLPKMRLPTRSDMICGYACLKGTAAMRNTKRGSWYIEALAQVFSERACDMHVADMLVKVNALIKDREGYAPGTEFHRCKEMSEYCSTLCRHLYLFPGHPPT
Chain of Human Caspase 2 (P42575 170-325): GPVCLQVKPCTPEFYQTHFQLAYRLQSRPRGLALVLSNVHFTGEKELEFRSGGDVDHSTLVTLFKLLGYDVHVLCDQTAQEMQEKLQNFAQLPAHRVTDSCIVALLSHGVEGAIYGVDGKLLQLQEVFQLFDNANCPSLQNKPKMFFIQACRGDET
Chain of FIPV-CoV-2 3CLpro (Q98VG9 2904-3205): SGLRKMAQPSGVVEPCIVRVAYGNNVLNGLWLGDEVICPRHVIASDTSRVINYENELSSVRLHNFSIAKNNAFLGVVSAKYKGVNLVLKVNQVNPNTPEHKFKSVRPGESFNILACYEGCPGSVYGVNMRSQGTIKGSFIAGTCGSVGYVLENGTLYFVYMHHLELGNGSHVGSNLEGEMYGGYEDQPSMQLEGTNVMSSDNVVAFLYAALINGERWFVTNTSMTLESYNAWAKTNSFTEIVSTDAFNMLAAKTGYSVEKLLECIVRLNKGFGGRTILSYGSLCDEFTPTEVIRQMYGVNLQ
Chain of CYP2B6 (P20813 whole entry): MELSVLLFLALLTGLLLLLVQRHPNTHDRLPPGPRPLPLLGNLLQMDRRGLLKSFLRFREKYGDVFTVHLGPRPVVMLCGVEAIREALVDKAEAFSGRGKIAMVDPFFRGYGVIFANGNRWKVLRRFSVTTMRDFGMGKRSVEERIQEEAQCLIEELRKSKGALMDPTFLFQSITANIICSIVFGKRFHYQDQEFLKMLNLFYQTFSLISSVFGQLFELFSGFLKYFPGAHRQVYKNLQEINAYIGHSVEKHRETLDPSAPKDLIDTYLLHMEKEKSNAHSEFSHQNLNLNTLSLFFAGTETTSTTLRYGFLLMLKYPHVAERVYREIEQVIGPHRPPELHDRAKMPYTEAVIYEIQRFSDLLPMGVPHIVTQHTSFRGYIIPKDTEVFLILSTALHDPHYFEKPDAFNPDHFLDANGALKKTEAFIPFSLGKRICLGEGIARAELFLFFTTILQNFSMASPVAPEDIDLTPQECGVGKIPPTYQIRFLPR

SMILES: COc1cccc2[nH]c(C(=O)N[C@@H](CC(C)C)C(=O)N[C@@H](C[C@@H]3CCNC3=O)C(=O)CO)cc12 [parent compound, N-((1S)-1-{[((1S)-3-hydroxy-2-oxo-1-{[(3S)-2-oxopyrrolidin-3-yl]methyl}propyl)amino]carbonyl}-3-methylbutyl)-4-methoxy-1H-indole-2-carboxamide]
- Ki [1]: 4 ± 0.4 nM
- EC50 ([2]; 24 hours post infection): 221 nM
- EC90 ([2]; 24 hours post infection): 734 nM
- EC50 ([2]; 48 hours post infection): 158 nM
- EC90 ([2]; 48 hours post infection): 439 nM
- Hill coefficient (m), slope of dose response ([2]; across a range of in vitro antiviral assays): 3
- IC50 [3]: > 200000 nM
- micronuclei formation [4]: did not induce micronuclei formation
- IC50 [5]: 6120 nM
- margin of human cathepsin B activity compared to 3CLpro [5]: 1000 fold
- IC50 [6]: > 33300 nM
- IC50 [7]: > 20000 nM
- bioavailability [8]: < 2%
- projected unbound human Cmax (at the projected human efficacious dose): 500 nM
- predicted half-life (humans, predicted): approximately 2 h
- predicted steady state volume of distribution (Vdss) (humans, predicted): 1 L/kg
- predicted plasma clearance (CLp) (humans, predicted from in vitro metabolism and animal PK): ~6 mL/min/kg
- CC50 ([9]; efflux inhibitor 0): > 100 µM
- CC50 ([9]; efflux inhibitor 0.5 μM): > 100 µM
- CC50 ([9]; efflux inhibitor 2 μM): > 50 µM
- IC50 [10]: > 200000 nM
- CC50 ([11]; efflux inhibitor 0): > 100 µM
- CC50 ([11]; efflux inhibitor 0.5 μM): > 100 µM
- CC50 ([11]; efflux inhibitor 2 μM): > 100 µM
- Ki [12]: 0.03 nM
- IC50 [13]: > 20000 nM
- host cell cytotoxicity [14]: No host cell cytotoxicity was observed
- IC50 [15]: > 20000 nM
- unbound CIint [16]: 14 µL/min/mg
- EC90 [17]: 1600 nM
- Ki [18]: 1.2 ± 0.9 nM
- IC50 [19]: > 200000 nM
- plasma clearances [20, 52]: 35-60 % liver blood flow
- volumes of distribution [20, 52]: < 1 L/kg
- eliminated unchanged in the urine ([20]; rat, dog and monkey): approximately 10%
- IC50 [21]: > 100000 nM
- IC50 [22]: > 20000 nM
- IC50 [23]: > 200000 nM
- Ki [24]: 0.1 ± 0.1 nM
- SFLogD7.4 [25]: 1.7
- CC50 [26]: > 10000 nM
- IC50 [27]: > 200000 nM
- time dependent inhibition of CYP3A4/5 [28]: weak signal
- Ki [29]: 0.03 ± 0.08 nM
- IC50 [30]: > 20000 nM
- IC50 [31]: > 20000 nM
- IC50 [32]: > 100000 nM
- EC90 ([33]; in the presence of the P-gp inhibitor): 480 nM
- EC50 ([33]; read-out: EC50 μM GeoMean (95% CI)): 0.23 µM
- IC50 [34]: > 200000 nM
- EC90 [35]: < 500 nM
- secondary (off-target) pharmacology [36]: minimal potential
- melting temperature (Tm) of SARS-CoV-2 3CLpro with compound bound [37]: 70.5+/−0.12 °C
- CYP involved in the metabolism [38]: major CYP involved in the metabolism
- hERG current amplitude: no inhibition at up to [39]: 300 µM
- compound-related findings [40]: minimal, non-adverse effects on clinical chemistry parameters
- tolerated dose, highest feasible dose tested [40]: 246 mg/kg/day
- EC90 [41]: 400 nM
- EC50 [41, 53]: 144 nM
- EC90 [41, 53]: 398 nM
- Ki [42]: 0.8 ± 0.6 nM
- Ki [43]: 0.3 ± 0.1 nM
- IC50 [44]: > 20000 nM
- IC50 [45]: > 200000 nM
- IC50 [46]: > 11100 nM
- IC50 [47]: > 20000 nM
- IC50 [48]: > 11100 nM
- IC50 [49]: > 20000 nM
- P-gp substrate status [50]: known substrate
- IC50 [51]: > 20000 nM
